# In ChEMBL document CHEMBL1201862, “PubChem BioAssay data set” (2004):
#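 A five-concentration, 48-hour dose response in 96-well plates underlies each endpoint, interpolated linearly between surrounding concentrations. GI50 = concentration required for 50% inhibition of growth.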 Calls of active or inactive are those of the source. Cut-off read from the data, not from the text of the source: active = GI50 up to about 1.1 µM and inactive = higher.
# Experiments:
# Assay in all cases: DTP human tumour cell line panel, 48 h
# 786-0 = test system: 786-0
# SK-MEL-2 = test system: SK-MEL-2
# SNB-75 = test system: SNB-75
# U-251 = test system: U-251
# SF-539 = test system: SF-539
# HCC 2998 = test system: HCC 2998
# OVCAR-5 = test system: OVCAR-5
# BT-549 = test system: BT-549
# OVCAR-3 = test system: OVCAR-3
# CCRF-CEM = test system: CCRF-CEM
# HCT-116 = test system: HCT-116
# RXF 393 = test system: RXF 393
# MDA-MB-231 = test system: MDA-MB-231
# NCI-H522 = test system: NCI-H522
# DU-145 = test system: DU-145
# MDA-MB-435 = test system: MDA-MB-435
# SW-620 = test system: SW-620
# NCI-H460 = test system: NCI-H460
# RPMI-8226 = test system: RPMI-8226
# PC-3 = test system: PC-3
# MCF7 = test system: MCF7
# CAKI-1 = test system: CAKI-1
# IGROV-1 = test system: IGROV-1
# A498 = test system: A498
# HT-29 = test system: HT-29
# SN12C = test system: SN12C
# Malme-3M = test system: Malme-3M
# MDA-N = test system: MDA-N
# SF-268 = test system: SF-268
# COLO 205 = test system: COLO 205
# HL-60 = test system: HL-60
# T47D = test system: T47D
# SF-295 = test system: SF-295
# KM12 = test system: KM12
# MOLT-4 = test system: MOLT-4
# SR = test system: SR
# EKVX = test system: EKVX
# TK-10 = test system: TK-10
# A549 = test system: A549
# OVCAR-8 = test system: OVCAR-8
# SK-MEL-5 = test system: SK-MEL-5
# LOX IMVI = test system: LOX IMVI
# M14 = test system: M14
# K562 = test system: K562
# NCI/ADR-RES = test system: NCI/ADR-RES
# UACC-62 = test system: UACC-62
# NCI-H23 = test system: NCI-H23
# NCI-H226 = test system: NCI-H226
# HCT-15 = test system: HCT-15
# SNB-19 = test system: SNB-19
# UACC-257 = test system: UACC-257
# SK-MEL-28 = test system: SK-MEL-28
# HOP-62 = test system: HOP-62
# Hs-578T = test system: Hs-578T
# UO-31 = test system: UO-31
# SK-OV-3 = test system: SK-OV-3
# ACHN = test system: ACHN
# HOP-92 = test system: HOP-92
# OVCAR-4 = test system: OVCAR-4
compound,measurement,setting,value
CC(C)C[C@H](NC(=O)[C@@H](Cc1cccc2ccccc12)NC(=O)N1CCOCC1)B(O)O,GI50,786-0,4.79 µM (inactive)
same,GI50,SK-MEL-2,3.33 µM (inactive)
same,GI50,SNB-75,1.18 µM (inactive)
same,GI50,U-251,4.57 µM (inactive)
same,GI50,SF-539,2.04 µM (inactive)
same,GI50,HCC 2998,2.01 µM (inactive)
same,GI50,OVCAR-5,3.19 µM (inactive)
same,GI50,BT-549,3.99 µM (inactive)
same,GI50,OVCAR-3,2.61 µM (inactive)
same,GI50,CCRF-CEM,1.57 µM (inactive)
same,GI50,HCT-116,2.24 µM (inactive)
same,GI50,RXF 393,2.4 µM (inactive)
same,GI50,MDA-MB-231,4.48 µM (inactive)
same,GI50,NCI-H522,1.92 µM (inactive)
same,GI50,DU-145,10.9 µM (inactive)
same,GI50,MDA-MB-435,1.92 µM (inactive)
same,GI50,SW-620,3.14 µM (inactive)
same,GI50,NCI-H460,18.5 µM (inactive)
same,GI50,RPMI-8226,2.52 µM (inactive)
same,GI50,PC-3,7.82 µM (inactive)
same,GI50,MCF7,5.43 µM (inactive)
same,GI50,CAKI-1,11.1 µM (inactive)
same,GI50,IGROV-1,5.06 µM (inactive)
same,GI50,A498,4.05 µM (inactive)
same,GI50,HT-29,2.64 µM (inactive)
same,GI50,SN12C,5.55 µM (inactive)
same,GI50,Malme-3M,1.58 µM (inactive)
same,GI50,MDA-N,2.59 µM (inactive)
same,GI50,SF-268,2.96 µM (inactive)
same,GI50,COLO 205,16.4 µM (inactive)
same,GI50,HL-60,2.77 µM (inactive)
same,GI50,T47D,2.45 µM (inactive)
same,GI50,SF-295,14 µM (inactive)
same,GI50,KM12,5.13 µM (inactive)
same,GI50,MOLT-4,3.2 µM (inactive)
same,GI50,SR,3.13 µM (inactive)
same,GI50,EKVX,14.3 µM (inactive)
same,GI50,TK-10,6.47 µM (inactive)
same,GI50,A549,19.8 µM (inactive)
same,GI50,OVCAR-8,16.7 µM (inactive)
same,GI50,SK-MEL-5,3.13 µM (inactive)
same,GI50,LOX IMVI,2.36 µM (inactive)
same,GI50,M14,3.11 µM (inactive)
same,GI50,K562,3.55 µM (inactive)
same,GI50,NCI/ADR-RES,51.4 µM (inactive)
same,GI50,UACC-62,4.02 µM (inactive)
same,GI50,NCI-H23,2.9 µM (inactive)
same,GI50,NCI-H226,1.61 µM (inactive)
same,GI50,HCT-15,21.9 µM
same,GI50,SNB-19,9.77 µM (inactive)
same,GI50,UACC-257,2.18 µM (inactive)
same,GI50,SK-MEL-28,2.14 µM (inactive)
same,GI50,HOP-62,16 µM (inactive)
same,GI50,Hs-578T,3.84 µM (inactive)
same,GI50,UO-31,19.5 µM (inactive)
same,GI50,SK-OV-3,6.85 µM (inactive)
same,GI50,ACHN,9.25 µM (inactive)
same,GI50,HOP-92,2.67 µM (inactive)
same,GI50,OVCAR-4,4.72 µM (inactive)
OC(CCN1CCN(CCOC(c2ccc(F)cc2)c2ccc(F)cc2)CC1)c1ccccc1 (stereo not drawn),GI50,786-0,12.9 µM (inactive)
same,GI50,SK-MEL-2,15.3 µM (inactive)
same,GI50,SNB-75,13.5 µM (inactive)
same,GI50,U-251,14.6 µM (inactive)
same,GI50,SF-539,11.1 µM (inactive)
same,GI50,HCC 2998,3.52 µM (inactive)
same,GI50,OVCAR-5,14.5 µM (inactive)
same,GI50,BT-549,14.1 µM (inactive)
same,GI50,OVCAR-3,15.3 µM (inactive)
same,GI50,CCRF-CEM,19 µM (inactive)
same,GI50,HCT-116,13.4 µM (inactive)
same,GI50,RXF 393,11.1 µM (inactive)
same,GI50,MDA-MB-231,14.6 µM (inactive)
same,GI50,NCI-H522,14.4 µM (inactive)
same,GI50,DU-145,17.3 µM (inactive)
same,GI50,MDA-MB-435,17.8 µM (inactive)
same,GI50,SW-620,22.8 µM (inactive)
same,GI50,NCI-H460,16.7 µM (inactive)
same,GI50,RPMI-8226,15.7 µM (inactive)
same,GI50,PC-3,13.6 µM (inactive)
same,GI50,MCF7,16.6 µM (inactive)
same,GI50,CAKI-1,16.8 µM (inactive)
same,GI50,IGROV-1,13.6 µM (inactive)
same,GI50,A498,5.06 µM (inactive)
same,GI50,HT-29,8.65 µM (inactive)
same,GI50,SN12C,15.2 µM (inactive)
same,GI50,Malme-3M,13.4 µM (inactive)
same,GI50,MDA-N,15.1 µM (inactive)
same,GI50,SF-268,16.9 µM (inactive)
same,GI50,COLO 205,4.09 µM (inactive)
same,GI50,HL-60,15.9 µM (inactive)
same,GI50,T47D,12.3 µM (inactive)
same,GI50,SF-295,18.3 µM (inactive)
same,GI50,KM12,18.5 µM (inactive)
same,GI50,MOLT-4,12.1 µM (inactive)
same,GI50,SR,5.48 µM (inactive)
same,GI50,EKVX,12.9 µM (inactive)
same,GI50,TK-10,15 µM (inactive)
same,GI50,A549,16.4 µM (inactive)
same,GI50,OVCAR-8,12.9 µM (inactive)
same,GI50,SK-MEL-5,7.6 µM (inactive)
same,GI50,LOX IMVI,14.6 µM (inactive)
same,GI50,M14,14.7 µM (inactive)
same,GI50,K562,4.56 µM (inactive)
same,GI50,NCI/ADR-RES,13.3 µM (inactive)
same,GI50,UACC-62,14.5 µM (inactive)
same,GI50,NCI-H23,16.6 µM (inactive)
same,GI50,NCI-H226,15 µM (inactive)
same,GI50,HCT-15,13.6 µM
same,GI50,SNB-19,16.9 µM (inactive)
same,GI50,UACC-257,16.2 µM (inactive)
same,GI50,SK-MEL-28,17.5 µM (inactive)
same,GI50,HOP-62,18 µM (inactive)
same,GI50,Hs-578T,16 µM (inactive)
same,GI50,UO-31,3.37 µM (inactive)
same,GI50,SK-OV-3,16.3 µM (inactive)
same,GI50,ACHN,12.9 µM (inactive)
same,GI50,HOP-92,10.3 µM (inactive)
same,GI50,OVCAR-4,16.1 µM (inactive)
